Several values for one entry are separate records, joined by “and”; a condition that tells them apart may be missing. Identical values can stand only once. Like-named read-outs stand apart in the source and are kept apart here.
Assays:
[1] = Buffer and pH effects: pirfenidone solubility in citrate and phosphate buffers; assay type: physicochemical; settings: Citrate buffer 5 mM, pH 6; ambient temperature overnight
Method: The sample was agitated at ambient temperature overnight. The sample was visually inspected, appearance recorded, centrifuged to sediment any un-dissolved material, and the supernatant withdrawn via syringe through a 0.22 μm PVDF filter. […] The remaining filtered sample was split into three equal volumes in glass vials and placed at 25° C./60RH, 40° C./75RH and refrigeration. Samples were wrapped in aluminum foil to reduce light exposure. After the first night of incubation, samples were briefly visually inspected for any signs of discoloration or precipitate formation.

[2] = Intravenous push of pirfenidone to a mouse: plasma and lung levels; assay type: in vivo; settings: 40 mg/kg intravenous dose; blood about 40% of wet lung weight
Method: Exemplary Lung Tissue Delivery Assumptions: • 1. The total wet weight of the adult human lung is about 685 to 1,050 grams (for calculations, conservatively about […]); • 2. The adult human lung blood volume is about 450 mL; • 3. The tissue weight of the adult human lung is conservatively 1,050 grams wet weight minus 450 mL blood weight (assuming density of 1.0), equals 600 grams; • 4. […] The inhaled route of administration is dependent upon a respirable delivered dose (RDD). The RDD is the fraction of drug inhaled in aerosol particles less than 5 microns in diameter; • 7. RDD of typical dry powder, liquid nebulization or meter-dose inhalation devices ranges from 10% to 70%. Higher and lower efficiency devices with RDDs greater than 70% and less than 10% also exist; • 8. […] From the above observations and calculations, the lower limit of efficacy in lung tissue is 8 mcg/gram; and • 10.

[3] = cited from earlier work; for oral Cmax / Cmax: IPF patients; for Cmax: read-out: oral Cmax
[4] = Rubino et al., cited from earlier work
[5] = Aqueous formulation observations: solubility, salt addition, taste, dissolution time; assay type: physicochemical
Method: However, at this (and lower) concentration it was determined that salt addition was required to improve acute tolerability upon inhalation of a nebulized solution (otherwise a hypotonic solution). To address tonicity, NaCl or MgCl2 were added. […] This effect was not observed at ˜pH 8.

[6] = in vivo; cited from earlier work
[7] = Process temperature development study (60° C. dissolution, cooling to 25° C.); assay type: physicochemical; settings: for Pirfenidone (mg/mL) >Re-crystal: after stepwise cooling to 25° C. and later re-crystallization
Method: Formulations were prepared as described in Table 11. […] The final volume of each formulation was 5 mL. […] Each sample was mixed thoroughly and agitated overnight at 60° C. Rapid cooling and step-wise cooling from 60° C. to 25° C. was performed. HPLC analysis was performed on samples taken after overnight incubation and after cooling to 25° C. Prior to HPLC analysis, formulations were filtered via syringe through a 0.45 μm PVDF filter.

[8] = 85% saturation pirfenidone formulations exposed to several temperatures (re-crystallization); assay type: physicochemical; settings: overnight
Excerpt: However, in all cases pirfenidone eventually re-crystallized. This re-crystallization was not inhibited by pre-filtration of the sample.

[9] = EtOH 0, PG 8, PS80 0 % v/v, 92% phosphate buffer (5 mM), pH 6.6
[10] = EtOH 0, PG 8, PS80 0.04 % v/v, 92% phosphate buffer (5 mM), pH 6.7
[11] = EtOH 4, PG 0, PS80 0.04 % v/v, 96% phosphate buffer (5 mM), pH 6.6
[12] = EtOH 4, PG 8, PS80 0 % v/v, 88% phosphate buffer (5 mM), pH 6.7
[13] = EtOH 4, PG 8, PS80 0.04 % v/v, 88% phosphate buffer (5 mM), pH 6.7

## Cc1ccc(=O)n(-c2ccccc2)c1 [pirfenidone, 5-methyl-1-phenyl-2-(1H)-pyridone]
[1]
  Pirfenidone Saturation Solubility: 18.4 mg/mL
[2]
  lung tissue level after subtracting blood contribution: about 8 mcg/g
[3]; 801 mg oral pirfenidone
  duration of plasma level at or greater than 5 mcg/mL: 4 h
[3]; fasting-state
  oral Cmax: about 15.7 mcg/mL
  Cmax: ~84 µM
[3]; recommended fed-state
  oral Cmax: about 7.9 mcg/mL
  Cmax: ~42 µM
[3]; oral, fed-state
  change in Tmax by food: seven-fold increase
  reduction in Cmax by food: ~50%
  reduction in overall exposure (AUC) by food: 10-15% and ~20%
[4]; lung tissue (derived solely from plasma T1/2), aerosol 110 mg RDD, 2009 fasted-state
  T1/2 beta: 2.5 h
[4]; lung tissue (derived solely from plasma T1/2), aerosol 154 mg RDD, 2009 fasted-state
  T1/2 beta: 2.5 h
[4]; lung tissue (derived solely from plasma T1/2), aerosol 185 mg RDD, 2009 fasted-state
  T1/2 beta: 2.5 h
[4]; lung tissue (derived solely from plasma T1/2), oral 801 mg, fasted-state, 2009
  T1/2 beta: 2.5 h
[4]; lung tissue (derived solely from plasma T1/2), oral 801 mg, fed-state, 2009
  T1/2 beta: 2.4 h
[4]; plasma, aerosol 110 mg RDD, 2009 fasted-state
  T1/2 beta: 2.5 h
[4]; plasma, aerosol 154 mg RDD, 2009 fasted-state
  T1/2 beta: 2.5 h
[4]; plasma, aerosol 185 mg RDD, 2009 fasted-state
  T1/2 beta: 2.5 h
[4]; plasma, oral 801 mg, fasted-state, 2009
  T1/2 beta: 2.5 h
[4]; plasma, oral 801 mg, fed-state, 2009
  T1/2 beta: 2.4 h
[5]; MgCl2 added, 1:1 and 1:2 mole ratios magnesium to pirfenidone
  formulation stability on addition of MgCl2: maintained a stable, soluble solution
[5]; NaCl added to address tonicity, ambient storage
  formulation stability on addition of NaCl: destabilized the formulation and resulted in precipitation upon ambient storage
[5]; addition of NaCl
  acute tolerability upon inhalation of a nebulized solution: improved acute tolerability
[5]; aqueous solution, aqueous buffer, across a pH range of about 4.0 to about 8.0
  solubility: 17 mg/mL
[6]
  administered dose excreted in the urine: about 80%
[7]; 60° C.
  full dissolution on heating: ≥ 50 mg/mL
[7]; [9]
  Observations: dissolution: Fully dissolved after overnight at 60 °C
  Observations: stable at 25° C. before re-crystallization: Stable at 25 °C for >4 hours before re-
  Pirfenidone (mg/mL) >60° C.: 54.6 mg/mL
  Pirfenidone (mg/mL) >Re-crystal: 18.6 mg/mL
[7]; [10]
  Observations: dissolution: Fully dissolved after overnight at 60 °C
  Observations: stable at 25° C. before re-crystallization: Stable at 25 °C for >4 hours before re-
  Pirfenidone (mg/mL) >60° C.: 52.8 mg/mL
  Pirfenidone (mg/mL) >Re-crystal: 22.3 mg/mL
[7]; [11]
  Observations: dissolution: Fully dissolved after overnight at 60 °C
  Observations: stable at 25° C. before re-crystallization: Stable at 25 °C for >4 hours before re-
  Pirfenidone (mg/mL) >60° C.: 50.7 mg/mL
  Pirfenidone (mg/mL) >Re-crystal: 22.4 mg/mL
[7]; [12]
  Observations: dissolution: Fully dissolved after overnight at 60 °C
  Observations: stable at 25° C. before re-crystallization: Stable at 25 °C for >4 hours before re-
  Pirfenidone (mg/mL) >60° C.: 50.34 mg/mL
  Pirfenidone (mg/mL) >Re-crystal: 27.6 mg/mL
[7]; [13]
  Observations: dissolution: Fully dissolved after overnight at 60 °C
  Observations: stable at 25° C. before re-crystallization: Stable at 25 °C for >4 hours before re-
  Pirfenidone (mg/mL) >60° C.: 51.8 mg/mL
  Pirfenidone (mg/mL) >Re-crystal: 26.8 mg/mL
[7]; rapid cooling to 25° C.
  outcome of rapid cooling: rapid recrystallization
[7]; slow step-wise cooling from 60° C. to 25° C.
  concentration staying in solution for several hours: about 50 mg/mL
[8]; 4° C., pirfenidone 23.0 mg/mL (85% saturation), 4% EtOH, 8% PG, 88% phosphate buffer (5 mM), pH 6.6
  Recrystallization upon storage: No
[8]; 4° C., pirfenidone 29.5 mg/mL, 6% EtOH, 12% PG, 82% phosphate buffer (5 mM), pH 7.0
  Recrystallization upon storage: No
[8]; 4° C., pirfenidone […], 8% EtOH, 16% PG, 76% phosphate buffer (5 mM), pH 7.0
  Recrystallization upon storage: No
[8]; 15° C., pirfenidone 23.0 mg/mL (85% saturation), 4% EtOH, 8% PG, 88% phosphate buffer (5 mM), pH 6.6
  Recrystallization upon storage: No
[8]; 15° C., pirfenidone 29.5 mg/mL, 6% EtOH, 12% PG, 82% phosphate buffer (5 mM), pH 7.0
  Recrystallization upon storage: No
[8]; 15° C., pirfenidone […], 8% EtOH, 16% PG, 76% phosphate buffer (5 mM), pH 7.0
  Recrystallization upon storage: No
[8]; 25° C., pirfenidone 23.0 mg/mL (85% saturation), 4% EtOH, 8% PG, 88% phosphate buffer (5 mM), pH 6.6
  Recrystallization upon storage: No
[8]; 25° C., pirfenidone 27.2 mg/mL (saturation solubility), 4% EtOH, 8% PG, 88% phosphate buffer (5 mM), pH 6.6
  Recrystallization upon storage: Yes
[8]; 25° C., pirfenidone 29.5 mg/mL, 6% EtOH, 12% PG, 82% phosphate buffer (5 mM), pH 7.0
  Recrystallization upon storage: No
[8]; 25° C., pirfenidone 34.7 mg/mL, 6% EtOH, 12% PG, 82% phosphate buffer (5 mM), pH 7.0
  Recrystallization upon storage: Yes
[8]; 25° C., pirfenidone 43.7 mg/mL, 8% EtOH, 16% PG, 76% phosphate buffer (5 mM), pH 7.0
  Recrystallization upon storage: Yes
[8]; 25° C., pirfenidone […], 8% EtOH, 16% PG, 76% phosphate buffer (5 mM), pH 7.0
  Recrystallization upon storage: No
[8]; −20° C., pirfenidone 23.0 mg/mL (85% saturation), 4% EtOH, 8% PG, 88% phosphate buffer (5 mM), pH 6.6, crystals re-dissolved at 25° C. without agitation
  Recrystallization upon storage: Yes^f
[8]; −20° C., pirfenidone 29.5 mg/mL, 6% EtOH, 12% PG, 82% phosphate buffer (5 mM), pH 7.0, crystals re-dissolved at 25° C. without agitation
  Recrystallization upon storage: Yes^f
[8]; −20° C., pirfenidone […], 8% EtOH, 16% PG, 76% phosphate buffer (5 mM), pH 7.0, crystals re-dissolved at 25° C. without agitation
  Recrystallization upon storage: Yes^f
